Marks after values point to notes of the source that are not given here.
Experiments:
ferroportin = target: T1, ferroportin (Homo sapiens, UniProt Q9NP59); conditions: clinical testing, advanced to phase II; cited from earlier work
T1 sequence (Q9NP59 1-571): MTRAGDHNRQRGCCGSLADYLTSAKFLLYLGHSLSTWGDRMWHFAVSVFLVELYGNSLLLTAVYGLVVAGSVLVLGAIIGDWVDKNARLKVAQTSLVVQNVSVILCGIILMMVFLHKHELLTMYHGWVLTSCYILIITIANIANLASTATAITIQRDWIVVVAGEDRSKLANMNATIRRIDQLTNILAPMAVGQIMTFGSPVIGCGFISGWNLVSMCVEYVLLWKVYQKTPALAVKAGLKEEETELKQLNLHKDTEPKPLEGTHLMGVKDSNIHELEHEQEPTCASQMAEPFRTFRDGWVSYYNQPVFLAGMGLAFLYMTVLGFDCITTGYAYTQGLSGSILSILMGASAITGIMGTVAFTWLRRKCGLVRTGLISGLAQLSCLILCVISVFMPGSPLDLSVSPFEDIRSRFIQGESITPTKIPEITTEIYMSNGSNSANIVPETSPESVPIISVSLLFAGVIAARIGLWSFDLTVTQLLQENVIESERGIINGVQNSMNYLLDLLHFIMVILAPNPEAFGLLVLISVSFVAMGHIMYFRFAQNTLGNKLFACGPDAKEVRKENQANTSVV

[1] = tested on: cells challenged with high-glucose; conditions: cited from earlier work
ferroptosis = conditions: cited from earlier work
[2] = Approx, based on close analogue 36 and FBS0701; cited from earlier work
[3] = cited from earlier work
[4] = clinical trials; cited from earlier work
Gram positive bacteria = conditions: cited from earlier work
Gram negative bacteria = conditions: cited from earlier work
fungi = conditions: cited from earlier work
microbial growth = conditions: cited from earlier work
[5] = in vivo; cited from earlier work
[6] = doxorubicin-induced mouse model; cited from earlier work
[7] = Iron(III) binding affinity by NaOH titration with UV-vis spectra (HypSpec2014); conditions: 25° C.
Experimental: The titrations were carried out under a wet nitrogen atmosphere to avoid concentration changes due to evaporation. Aliquots of each complex solution were taken periodically during the titration and the UV-vis spectra of the aliquots were collected as a batch once the titration was completed. The pH range studied spanned the equilibrium between bis and tris coordination for the ligands as these are the only two species expected at physiological pH. For Fe3-DIBI the spectra were collected 24 h after collecting the batch of aliquots. The spectra were processed using HypSpec2014 to determine the iron(III) binding affinity of […] and deferiprone (DFP) as reference as summarized in Table 7.

[8] = Resistance of chelator-bound iron(III) to chemical reduction by dithionite; assay type: physicochemical; conditions: 0.1 M MOPS, pH 7.4
From the text: Chemical reduction of iron from Fe(III) to Fe(II) is part of the chemical reductive cycling of iron that drives ROS production in and around cells and also facilities removal of iron from intracellular stores for use elsewhere in the body. Generally iron in extracellular compartments of the body is in the Fe(III) form this helping to limit iron related toxic reactions as free Fe(II) would quickly oxidize to Fe(III) and this could drive, for example, ROS production. Thus, the relative ability of an iron chelator to hold Fe(III) and resist its reduction to Fe(II) would have benefits. Correspondingly, the relative chemical reducibility of Fe(III) to Fe(II) as bound by deferiprone, MAHMP and DIBI was tested. The different iron loaded chelators were first prepared so that iron only sufficient to ensure initial presence of fully coordinated iron(III) was used, i.e. a ratio of three chelator molecules of either deferiprone or MAHMP to each iron(III) atom present. DIBI with its measured MAHMP content was also similarly loaded with iron added just sufficient to satisfy its MAHMP iron binding sites on a similar basis. The iron-chelates were then reacted with dithionite (DT, [S2O4]^2−) a chemical reductant for iron and the relative changes in absorbance intensity at 460 nm was used to monitor for iron reduction with results as shown in FIG. 2.

SMILES | cell viability [1] | Hydrophobicity/ hydrophilicity log P [3] | MIC Gram positive bacteria (Gram positive bacteria) | MIC Gram negative bacteria (Gram negative bacteria) | MIC fungi (fungi) | Antimicrobial activity (microbial growth) | other results
O=C(NCc1ncccc1F)c1coc(CCNCCc2nc3ccccc3[nH]2)n1 [VIT-2763] | – | – | – | – | – | – | lowering serum iron levels (ferroportin): good potential for lowering serum iron levels; toxicity (ferroportin): low toxicity
O=c1c(O)c(-c2ccc(O)c(O)c2)oc2cc(O)cc(O)c12 [quercetin] | rescued cell viability | – | – | – | – | – | –
O=C([O-])CN(CC(=O)[O-])CC(=O)[O-].[Fe+3] [ferric-nitriloacetate (NTA), ferric-nitriloacetate] | – | – | – | – | – | – | effect on ferroptosis (ferroptosis): promote ferroptosis and renal carcinoma
COCCOCCOc1ccc(C2=N[C@@](C)(C(=O)O)CS2)c(O)c1 [SP-420] | – | −0.89 | – | – | – | – | Fe binding constant log K [2]: 33.1-33.4; renal toxicity [4]: undesirable renal toxicity
CC(=O)N(O)CCCCCNC(=O)CCC(=O)N(O)CCCCCNC(=O)CCC(=O)N(O)CCCCCN [Deferoxamine] | rescued cell viability | −3 ^b | >913^k μM | >913^k μM | >228^n μM | Poor, | effect on ferroptosis (ferroptosis): suppression; infections in test animals [5]: fatal infections
CCOC(=O)c1ccc(NC2CCCCC2)c(N)c1 [ferrostatin-1] | rescued cell viability | – | – | – | – | – | cardiac function [6]: improved cardiac function; mortality [6]: reduced mortality
O=C(O)c1ccc(-n2nc(-c3ccccc3O)nc2-c2ccccc2O)cc1 [Deferasirox] | – | 4.3 ^b | 21^l μM | 133^m μM | 67^p μM | Low | –
C=C(C)C(=O)NCCn1ccc(=O)c(O)c1C [MAHMP] | – | – | – | – | – | – | Log β1 iron binding formation constant [7]: 15.01(1); Log β2 iron binding formation constant [7]: 27.9(1); Log β3 iron binding formation constant [7]: 38.22(6); reduction of bound iron(III) by dithionite (intensity of 460 nm band) [8]: The same reaction was observed
Cc1c(O)c(=O)ccn1C [Deferiprone] | – | −0.8 ^b | 575^e μM | 287^k μM | 1151^n μM | Very Low | Log β1 iron binding formation constant [7]: 15.01(1); Log β2 iron binding formation constant [7]: 27.5(7); Log β3 iron binding formation constant [7]: 36.7(1); reduction of bound iron(III) by dithionite (intensity of 460 nm band) [8]: readily reduced

From patent US20250205275A1, “POLYMERIC IRON BINDING COMPOSITIONS AND METHODS OF USE FOR TREATING DISEASES ASSOCIATED WITH EXCESS DAMAGING REACTIVE IRON” (Fe Pharmaceuticals (Canada) Inc., priority 2022, published 2025)
